Test results published in patent US20240117431A1, “STEM-CELL BASED BIOMARKER DISCOVERY” (THE REGENTS OF THE UNIVERSITY OF CALIFORNIA, priority 2020, published 2024).

Columns and labels:
[1] = test system: co-culture of mCherry HEK cells and GFP-TgUPRT variant HEK cells; test: Co-culture specificity, dot blot of biotinylated total RNA (CuAAC or IEDDA); assay type: cell-based; settings: 5 hours
Method: Co-culture of HEK cells containing GFP or mCherry expression plasmids: HEK293 (5×105) cells seeded in 6-well plate. Thirty-six hour post seeding, HEK cells were transfected with 1 μg of single plasmid containing EGFP, mCherry, EGFP-TgUPRT-WT, or EGFP-TgUPRT-Mut. Twenty-four hour post transfection, transiently transfected HEK cells were trypsinized and seeded into a 5 cm plate. Equal amounts of cells (approximately 2×106 in total) where 1×10^6 cells containing GFP or GFP-TgUPRT plasmids and 1×10^6 cells containing mCherry construct) were co-cultured. Three co-culture conditions are Condition (A): mCherry and EGFP, Condition (B): mCherry and EGFP-WT-TgUPRT, and Condition (C): mCherry and EGFP-3×MT-TgUPRT (pKN-CMV-EGFP-TgUPRT-Mut16 or -Mut17). Sixteen hours post seeding, the co-cultures were treated with 5EU and 5VU for 5 hours at 200 μM and 500 μM final concentration, respectively. Cell imaging was performed to assess the overall distribution of green and red cells in each co-culture. Once imaging was done, cells were harvested and subjected to RNA isolation. Total RNA isolated from the co-culture was subjected to biotinylation by two click methods: (1) CuAAC to assess 5EU incorporation in RNA and (2) IEDDA to assess 5VU incorporation in RNA. Subsequently, biotinylated RNA was subjected to dot blot analysis. […]

[2] = test system: GFP-3×MT-TgUPRT HEK293T cells co-cultured with mCherry cells; test: Co-culture RT-qPCR enrichment of GFP transcript over mCherry; assay type: cell-based
Method: FIGS. 10A, 10B, 100, 10D, 10E show characterizing the stringency of the 2 (5VU)-mutant TgUPRT pair. […] Cells were transfected with TgUPRT variants and incubated with 2 at 1 mM final concentration for 24h. 2 incorporation was imaged using two-step labeling (1) IEDDA using tetrazene-biotin then followed by Alexa488-streptavidin. […] Streptavidin-HRP (Strep-HRP) was used for assessment of biotin level resulting from clicked RNA, and methylene blue (MeBI) staining served as loading control. […] Cells were treated the same as in panel 10B and the RNA appended with biotin and enriched before RT RT-qPCR.
Co-culture of HEK cells containing GFP or mCherry expression plasmids: HEK293 (5×105) cells seeded in 6-well plate. Thirty-six hour post seeding, HEK cells were transfected with 1 μg of single plasmid containing EGFP, mCherry, EGFP-TgUPRT-WT, or EGFP-TgUPRT-Mut. Twenty-four hour post transfection, transiently transfected HEK cells were trypsinized and seeded into a 5 cm plate. Equal amounts of cells (approximately 2×106 in total) where 1×10^6 cells containing GFP or GFP-TgUPRT plasmids and 1×10^6 cells containing mCherry construct) were co-cultured. Three co-culture conditions are Condition (A): mCherry and EGFP, Condition (B): mCherry and EGFP-WT-TgUPRT, and Condition (C): mCherry and EGFP-3×MT-TgUPRT (pKN-CMV-EGFP-TgUPRT-Mut16 or -Mut17). […]

`C#Cc1c[nH]c(=O)[nH]c1=O` [compound 1, 5-ethynylpyrimidine-2,4(1H,3H)-dione] was tested, and the “incorporation into RNA in the absence of TgUPRT (co-culture dot blot)” value ([1]; 200 μM 5EU with 500 μM 5VU) was “detectable signal” and the “enrichment of GFP transcript in -UPRT cells” value ([2]; co-culture, RT-qPCR) was “Background enrichment”.

`C=Cc1c[nH]c(=O)[nH]c1=O` [compound 2, 5-Vinylpyrimidine-2,4(1H,3H)-dione] was tested, and the “incorporation into RNA mediated by GFP-3×MT-TgUPRT (co-culture dot blot)” value ([1]; 500 μM 5VU with 200 μM 5EU) was “substantially” and the “enrichment of GFP transcript, triple mutant cells compared to no UPRT cells” value ([2]; {}) was about 100 fold.
